Reference: patent US12202866B2, “Therapeutic nanoconjugates and uses thereof” (UNIVERSITAT AUTÒNOMA DE BARCELONA (UAB), priority 2017, dated 2025)
Marks after values point to notes of the source that are not given here.

Assays:
[1] = test system: subcutaneous CXCR4^+ SW1417 CRC tumor; assay: Induction of DNA double strand breaks and apoptosis in tumor tissue, SC SW1417 model; format: in vivo, mouse; details: for number of apoptotic figures in tumor tissue (Hoechst nuclear condensation or defragmentation): 24 h after injection; for number of DSBs foci in tumors (anti-gH2AX IHC): five hours after treatment
Protocol: (§1) The SC SW1417 mouse model was used to determine the capacity of the nanoconjugate to induce DNA damage and apoptosis in tumor tissue, as well as the kinetics of CXCR4 expression in the membrane of tumor cells after treatment, regarding the fraction of CXCR4 expressing tumor cells and their intensity, since CXCR4^+ are the target cells for the nanoconjugate. […] The mice had been treated with equimolecular dosages of T22-GFP-H6, free oligo-FdU or Buffer, in which also were determined the levels of CXCR4 expression in tumor tissue at the different time points.

[2] = test system: CXCR4^+ cancer cells in SC SW1417 CRC tumor; assay: CXCR4+ cancer cell fraction in tumor tissue along time after single dose (anti-CXCR4 IHC); format: in vivo, mouse; details: 24 h, 48 h, 72 h after equimolecular dose
Protocol: as §1

[3] = test system: CXCR4^+ SW1417 CRC metastases; assay: Prevention of metastasis protocol, SC+ORT CXCR4+ SW1417 CRC model; format: in vivo, NOD/SCID mice
Protocol: Thus, a SC+ORT model, was produced: when SC tumors reached a volume of 700 mm3, mice were sacrificed by cervical dislocation and tumours were excised, discarding the necrotic areas. Three hundred mg of viable tumour tissue was then cut into pieces and disaggregated in a mix of 0.05% trypsin (Invitrogen) and 100 mg/ml DNase (Sigma-Aldrich). The mix was pipetted 30 times, using a 10 ml pipette, and incubated for 10 minutes at 37° C. with shaking. It was then re-pipetted 30 times, using 10 ml, 3 ml and 1 ml pipettes, and re-incubated for 5 minutes at 37° C. with shaking. This re-pipetting step was then repeated. The obtained SW1417 single-cell suspension was filtered through a cell strainer and centrifuged at 1,000 g for 10 minutes before counting the cells. Then 2×10^6 cells, […] resuspended in 50 μl of media, were microinjected in the cecum of each mouse, following the method described above.
The SC+ORT metastatic CRC model developed in NOD/SCID mice was used to evaluate the capacity of the nanoconjugate for metastasis prevention.
(§2) At necropsy, the number and size of visible metastases in the organs where dissemination is expected in colorectal cancer (lymph nodes, liver, lung and peritoneum) were recorded for each mouse in all compared groups. Also the number of metastatic foci that emitted bioluminiscence (derived from the SW1417-luci CRC cells) were counted ex vivo in the target organs for metastasis, using the IVIS® 200-Spectrum (Perkin-Elmer). Samples for histopathological and immunohistochemical analyses were collected and processed. Two independent observers analyzed H&E stained samples to count the number and measure the size of all observed metastatic foci in three (metastasis prevention experiment) or six (regression of metastasis experiment) sections of each organ in each mouse. The images were taken and the measurements were performed with an Olympus microscope with the CellD Olympus software (v3.3). […] The obtained results were used to study a possible correlation between CXCR4^+ CCF and antimetastatic effect at the different sites.
(§3) In order to analyze differences between control and experimental groups of affected mice in metastatic rates at the different organs, Fisher's exact test was used. The Mann-Whitney test was used to compare number and size of metastatic foci in the affected organs among groups. All quantitative values were expressed as mean±SE and the statistical tests were performed using SPSS version 11.0 (IBM, New York, USA). Differences among groups was considered significant at a p<0.05.

[4] = test system: CXCR4^+ SW1417 CRC metastases; assay: Regression of established metastasis protocol, orthotopic CXCR4+ SW1417 CRC model; format: in vivo, Swiss nude mice; details: for LN foci, mean foci number per mouse / Lung foci, mean foci number per mouse: Regression protocol, 6 histology sections, mean + SE; for LN foci, mean foci number per mouse: 20 μg (or equimolecular) q3d x10 i.v.
Protocol: Swiss nude mice were anesthetized with ketamine and xylazine, exteriorizing their cecum by a laparotomy. 2×106 CXCR4^+ SW1417-luci CRC cells (expressing luciferase, to allow ex vivo bioluminescent identification of metastatic foci in affected organs at the end of therapy) were suspended in […] of modified Eagle's medium, and loaded into a sterile micropipette. The cell suspension was slowly injected, under a binocular lens, with an approximate 30° angle and its tip introduced 5 mm into the cecal wall. Afterward, a slight pressure was applied with a cotton stick at approximately 2 mm from the injection point in the direction of the pipette axis. The pipette was pulled out and the area around the injection cleaned with 3% iodine. After injection, the gut was returned to the abdominal cavity and closed with surgical staples.
The orthotopic and metastatic CRC model developed in Swiss nude mice was employed to perform experiments of metastasis regression. […] The experiment was finished when the first animal of the buffer-treated-group had to be euthanized. See below the studied parameters to evaluate the antimetastatic effect.
as §2, §3

[5] = Nanoparticle size by dynamic light scattering; format: physicochemical; details: Example 2; unit not given
Protocol: The volume and size distribution of the nanoparticles was determined by dynamic light scattering at 633 nm (Zetasizer Nano ZS, Malvern Instruments Limited, Malvern, Worcestershire, UK). Nanoconjugate size was also measured using purified samples, diluted to 0.2 mg/mL and contrasted by evaporation of 1 nm platinum layer in carbon-coated grids, before being visualized in a Hitachi H-7000 transmission electron microscope (TEM), as described33.

[6] = test system: subcutaneous CXCR4^+ SW1417 CRC tumor; details: mouse, in vivo, iv
Protocol: (§4) SC model was used to assess tumor uptake and nanoconjugate internalization and in vivo competition studies using co-administration of the CXCR4 antagonist AMD3100.
(§5) Two hours, 5 h and 24 h after the administration, the mouse was euthanized to resect the tumor and register ex vivo the intensity of the green fluorescence emitted by the nanoconjugated that biodistributed to tumor tissue using the IVIS® 200-Spectrum (Perkin Elmer, MA, USA). Following, tumor tissue samples were taken, processed and performed immunohistochemistry (IHC) to determine the presence or absence of the corresponding nanoconjugate into cytosol of tumor cells using an anti-GFP antibody (1:300; Santa-Cruz Biotechnology, CA, USA). […] Apoptosis was assessed determining nuclear condensation with Hoechst staining of tumor tissue sections and counting the number of condensed or defragmented nuclei in five high-power magnification fields in different sections for each tumor using the Olympus DP73 digital camera and the CellD Imaging 3.3 programme (Olympus, Tokyo, Japan).

CXCR4^+ SW1417 CRC cells = assay: Internalization in CXCR4+ SW1417 CRC cells (flow cytometry, AMD3100 competition); format: cell-based, human; details: antagonist 1:10 protein:antagonist molar ratio, 1 h before nanoconjugate
Protocol: CXCR4+ SW1417-luc CRC cells were cultured in modified Eagle's medium (Gibco, Rockville, MD) supplemented with 10% fetal calf serum (Gibco), and incubated at 37° C. and 5% CO2 in a humidified atmosphere. […] Fluorescence emission was measured with a D detector (530/30 nm band pass filter). To assess specificity for CXCR4 receptor-mediated internalization, competition studies were performed incubating CRC SW1417 cells with the CXCR4 antagonist AMD3100 (Sigma Aldrich) in a 1:10 (protein:antagonist) molar ratio for 1 h before exposure to the nanoconjugate at […] for an additional hour.
The cells were washed in phosphate-buffered saline (Sigma-Aldrich). Live cells were recorded by TCS-SP5 confocal laser scanning microscopy (Leica Microsystems, Heidelberg, Germany) using a Plan Apo 63×/1.4 (oil HC×PL APO lambda blue) objective as described. To determine particle localization inside the cell, stacks of 10-20 sections forevery 0.5 μm of cell thickness were collected and three-dimensional models were generated using Imaris version 6.1.0 software (Bitplane, Zurich, Switzerland).

[7] = test system: CXCR4^+ HeLa human cervical carcinoma cell line; assay: Internalization in CXCR4+ HeLa cells (flow cytometry, AMD3100 competition); format: cell-based; details: pre-treatment, 1:10 molar ratio
Protocol: To assess specificity for CXCR4 receptor mediated internalization, competition studies incubating CXCR4^+ HeLa cells with the CXCR4 antagonist AMD3100 (octahydrochloride hydrate, Sigma-Aldrich) were performed in a 1:10 (Protein:antagonist) molar ratio for 1 h before exposure to the nanoconjugate, as previously described for the T22-GFP-H6.
Nuclei were labeled with Hoechst 33342 (Life Technologies) and plasma membranes CellMask™ Deep Red (Life Technologies).

[8] = test system: subcutaneous CXCR4^+ SW1417 CRC tumor; assay: Tumor uptake and tumor cell internalization in subcutaneous CXCR4+ SW1417 CRC model; details: fluorescence emission
Protocol: as §4, §5

[9] = Prevention protocol, 3 histology sections, mean + SE

5′-(FdU)5-3′ [free oligo-FdU, reference compound]
number of apoptotic figures in tumor tissue (Hoechst nuclear condensation or defragmentation) [1]: 7.1±0.6
number of DSBs foci in tumors (anti-gH2AX IHC) [1]: 13.4±0.7
CXCR4+ CCF in tumor tissue along time [2]: remained similar to its basal level along time
LN foci, mean foci number per mouse ([3]; Prevention protocol, 20 μg (or equimolecular) q3d x12 i.v., 3 histology sections, mean + SE): 3.1 ± 0.4
Liver foci, mean foci number per mouse [3, 9]: 1.0 ± 0.3 ^c
Lung foci, mean foci number per mouse [3, 9]: 4.5 ± 1.6 ^e
Peritoneal foci, mean foci number per mouse [3, 9]: 2.8 ± 1.0 ^g
total or mean foci number at any site (LN, liver, lung, peritoneum) ([3]; compared to buffer-treated animals): did not reduce
Metastasis Liver [%] ([3]; end of prevention experiment): [55]^a %
Metastasis Liver, affected/total mice ([3]; end of prevention experiment): 6/11
Metastasis Lung [%] ([3]; end of prevention experiment): [55]^c %
Metastasis Lung, affected/total mice ([3]; end of prevention experiment): 6/11
Metastasis Lymph nodes [%] ([3]; end of prevention experiment): [100] %
Metastasis Lymph nodes, affected/total mice ([3]; end of prevention experiment): 11/11
Metastasis Peritoneal [%] ([3]; end of prevention experiment): [45] %
Metastasis Peritoneal, affected/total mice ([3]; end of prevention experiment): 5/11
remaining CXCR4^+ CCF in liver, lung and peritoneal metastatic tissue (anti-CXCR4 IHC) ([3]; end of prevention experiment): does not reduce
Metastasis Size, Liver ([3]; mean foci size): 9.6 μm^2 × 10^−3
Metastasis Size, Lung ([3]; mean foci size): 17.9 μm^2 × 10^−3
Metastasis Size, Lymph nodes ([3]; mean foci size): 77.0 μm^2 × 10^−3
Metastasis Size, Peritoneal ([3]; mean foci size): 304.8 μm^2 × 10^−3
Primary tumor Positive/#Mice ([3]; mice bearing a primary tumor out of total mice per group): 11/11
Primary tumor [%] ([3]; percent of mice bearing a primary tumor): [100] %
primary tumor growth by in vivo bioluminescence emission ([3]; prevention experiment, compared to buffer-treated mice): no significant inhibition
LN foci, mean foci number per mouse [4]: 0.8 ± 0.2
Lung foci, mean foci number per mouse [4]: 2.0 ± 0.7 ^j,m
primary tumor growth by in vivo bioluminescence emission ([4]; regression experiment, compared to buffer treated animals): significantly inhibited tumor growth

T22-GFP-H6: targeting vector: fusion protein nanoparticle of peptide T22 (CXCR4 ligand), green fluorescent protein and a Histidine tail
size determined by dynamic light scattering [5]: 13.4+0.11
number of apoptotic figures in tumor tissue (Hoechst nuclear condensation or defragmentation) [1]: 3.0±0.3
number of DSBs foci in tumors (anti-gH2AX IHC) [1]: undetectable
LN foci, mean foci number per mouse [4]: 1.1 ± 0.2 ^i
Lung foci, mean foci number per mouse [4]: 1.7 ± 0.6 ^l
internalization into CXCR4^+ tumor cell cytosol by anti-GFP immunohistochemistry [6]: internalized

c1cc(CN2CCCNCCNCCCNCC2)ccc1CN1CCCNCCNCCCNCC1 [AMD3100, reference compound]
block of T22-GFP-H6-FdU internalization by CXCR4 antagonist (CXCR4^+ SW1417 CRC cells): completely blocked
block of T22-GFP-H6-FdU internalization in HeLa cells by CXCR4 antagonist pre-treatment [7]: Complete internalization block
block of T22-GFP-H6-FdU tumor uptake by CXCR4 antagonist given prior to the nanoconjugate [8]: completely blocked
